Tests used:
[1] = system: gastric secretion stimulated by pentagastrin; experiment: Inhibition of gastric secretion stimulated by pentagastrin (Experiment 3-2); assay type: in vivo, Sprague-Dawley male rats; conditions: intravenous
[2] = target: T1, H^+ /K^+ ATPase (proton pump), gastric vesicles (Sus scrofa, UniProt P19156); experiment: Determination of H+/K+ ATPase activity, Lineweaver-Burk kinetics versus K+ (Experiment 4-2); assay type: biochemical, pig
T1 construct: Gastric vesicles were prepared from pig stomach; from tissue; host or cells: pig stomach, lyophilized gastric vesicles
Method: Gastric vesicles were prepared from pig stomach by the method described in Saccomani G., et al., J. Biol. Chem. 250, 4802-4809 (1975). The vesicles were lyophilized and kept at -70° C. The protein content was determined by the method of Lowry et al., using bovine serum albumin as standard[see Lowry, O. H., Rosebrough, N. J. and Randall, R. J., J. Biol. Chem. 193, 265-275 (1951)].
Test tubes were divided into 4 groups, each having 3 test tubes. As a control group, group 1 was added with the 10 μl of DMSO. Groups 2, 3 and 4 were administered with the compound prepared in example 34 whose final concentration are 0.17 μM, 0.33 μM and 0.67 μM, respectively. Each group was further divided into 3 small groups, in which enzymes were activated by ATP; ATP and Mg^++; and ATP, Mg^++ and K^+, respectively.
To all of the test tubes, were added 100 μl of lyophilized vesicles prepared at the concentration of 25 μg protein/ml and then 90 μl of 5 mM Pipes/Tris buffer pH 7.0. The compound prepared in Example 34 was added to each Group until the final concentration thereof became 0.17, 0.33 or 0.67 μM, respectively, They were preincubated for 15 minutes.
50 μl of ATP(3 mM) was added to each of the four Groups and the 50 μl of MgCl2 (2 mM) was added only to the 2nd and 3rd small groups of all Groups. Further, to the 3rd small groups of all Groups, were added 50 μl of KCl solution of various concentrations(from 0.1 mM to 30 mM) and then 150μl of Pipes/Tris buffer of pH 7.0. To the rest small groups, Pipes/Tris buffer of pH 7.0 was added until the volume became the same as that of the 3rd small group.
The test tube's were incubated at 37° C. for 30 minutes and then the reaction was terminated by adding 25% cold trichloroacetic acid solution. They were centrifuged by means of a microcentrifuge and the supernatant was taken up for the measurement of the released inorganic phosphate content by an automatic analyzer(CIBA CORNING, Express 550).
In accordance with the same procedures as above, except that 15 and 30 μm of omeprazole and 0.75, 1.5 and 3.0 μm of SK&F96067 were used as comparative substances, released inorganic phosphate content was measured.
The released inorganic phosphate contents of the three small groups were considered as the activity of H^+ /K^+ ATPase at each of the concentrations employed. The specific activity of H^+ /K^+ ATPase was calculated from the following equation:
Specific activity=(A-C)-(B-C) . . . (V)
A is the activity of enzyme activated by ATP, Mg^++ and , K^+ ;
B is the activity of enzyme activated by ATP and M^++ and
C is the activity of enzyme activated by ATP.
The specific activity, thus calculated, of Groups 1, 2, 3 and 4 which employed DMSO and the compound of Example 34 at 3 different concentrations were then plotted with respect to the concentration of KCl in FIG. 1 according to the method of Lineweaver-Burk, wherein .box-solid., .quadrature. and .largecircle. represent the respective concentrations of the compound of Example 34 of 0.67 μM, 0.33 μM and 0.17 μM; and .oval-solid. represents concentration of the DMSO compound. FIG. 2 depicts the Lineweaver-Burk plot of the specific activities obtained from SK&F96067, wherein .box-solid., .quadrature. and .largecircle. represent its respective concentrations of 3.0 μM, 1.5 μM, 0.75 μM; and .oval-solid. represents concentration of the DMSO compound. FIG. 3 illustrates the Lineweaver-Burk plot of the specific activities obtained from omeprazole, wherein .oval-solid. and .quadrature. represent its concentrations of 15 μM and 30 μM; and .largecircle. represents the concentration of DMSO.

[3] = system: gastric secretion stimulated by histamine; experiment: Anti-secretory effects when gastric secretion is stimulated by histamine (Experiment 3-1); assay type: in vivo, Sprague-Dawley male rats; conditions: intravenous
Method: In accordance with the method [see Ghosh and Shild, et al., British Journal of pharmacology 13:54-61 (1958)], anti-secretory effects of the test substances were studied in this Experiment. Sprague-Dawley male rats having a body weight of 200±20 g were divided into 3 groups, Group 1 to be administered with the compound of Example 34, Group 2 to be administered with SK&F96067[see Keeling, D. […] The rats of each Group, deprived of food for 24 hours before the experiment with free access to water, were anesthetized by intraperitoneally administering of 1.5 g/kg of 20% aqueous urethane solution and positioned on the test plate which was heated and maintained at 37° C. The anesthetized rats were cannulated at the right jugular vein for the administration of the test compounds and the left jugular vein for the administration of stimulating substances. After an abdominal incision, tubes were inserted into the esophagus and duodenum, each of which was connected with saline in a thermostat and a fraction collector. […] To the left jugular vein, histamine was administered as a gastric secretion stimulator. […] The gastric secretion inhibition (%) of the test compounds was calculated from the following equation: The gastric secretion inhibition (%) of the test compounds =(A-C)/(A-B)×100 . . . (IV) in which […]

[4] = target: T2, H^+ /K^+ ATPase, gastric vesicles (Sus scrofa, UniProt P19156); experiment: Reversibility of inhibition, Dilution and Washout method (Experiment 4-3); assay type: biochemical, pig
T2 construct: Gastric vesicles were prepared from pig stomach; from tissue; host or cells: pig stomach, lyophilized gastric vesicles
Method: The vesicles were lyophilized and kept at -70° C.
To all […] groups, was added 100 μl of lyophilized vesicles prepared in Experiment 4-1 at the concentration of 100 μg protein 1 ml. Then, 5 mM Pipes/Tris buffer(pH 6.4 ) was added to the three groups until the volume of test tubes became 150 μl. After the preincubation for 15 minutes, H^+ /K^+ ATPase activity was measured in accordance with the same procedures as in Experiment 4-2. The concentrations of the test substances as indicated above are the final concentrations.
After the completion of preincubation, each group was diluted 50 times with 5 mM Pipes/Tris buffer(pH 6.4), and then centrifuged for 60 minutes by means of Beckman ultracentrifuge(Model L8-80). The supernatant was discarded and the pellet was suspended with 5 mM Pipes/Tris buffer pH 6.4 until the volume became the same as the preincubation volume.

T1 sequence (P19156 2-1034 limits assumed): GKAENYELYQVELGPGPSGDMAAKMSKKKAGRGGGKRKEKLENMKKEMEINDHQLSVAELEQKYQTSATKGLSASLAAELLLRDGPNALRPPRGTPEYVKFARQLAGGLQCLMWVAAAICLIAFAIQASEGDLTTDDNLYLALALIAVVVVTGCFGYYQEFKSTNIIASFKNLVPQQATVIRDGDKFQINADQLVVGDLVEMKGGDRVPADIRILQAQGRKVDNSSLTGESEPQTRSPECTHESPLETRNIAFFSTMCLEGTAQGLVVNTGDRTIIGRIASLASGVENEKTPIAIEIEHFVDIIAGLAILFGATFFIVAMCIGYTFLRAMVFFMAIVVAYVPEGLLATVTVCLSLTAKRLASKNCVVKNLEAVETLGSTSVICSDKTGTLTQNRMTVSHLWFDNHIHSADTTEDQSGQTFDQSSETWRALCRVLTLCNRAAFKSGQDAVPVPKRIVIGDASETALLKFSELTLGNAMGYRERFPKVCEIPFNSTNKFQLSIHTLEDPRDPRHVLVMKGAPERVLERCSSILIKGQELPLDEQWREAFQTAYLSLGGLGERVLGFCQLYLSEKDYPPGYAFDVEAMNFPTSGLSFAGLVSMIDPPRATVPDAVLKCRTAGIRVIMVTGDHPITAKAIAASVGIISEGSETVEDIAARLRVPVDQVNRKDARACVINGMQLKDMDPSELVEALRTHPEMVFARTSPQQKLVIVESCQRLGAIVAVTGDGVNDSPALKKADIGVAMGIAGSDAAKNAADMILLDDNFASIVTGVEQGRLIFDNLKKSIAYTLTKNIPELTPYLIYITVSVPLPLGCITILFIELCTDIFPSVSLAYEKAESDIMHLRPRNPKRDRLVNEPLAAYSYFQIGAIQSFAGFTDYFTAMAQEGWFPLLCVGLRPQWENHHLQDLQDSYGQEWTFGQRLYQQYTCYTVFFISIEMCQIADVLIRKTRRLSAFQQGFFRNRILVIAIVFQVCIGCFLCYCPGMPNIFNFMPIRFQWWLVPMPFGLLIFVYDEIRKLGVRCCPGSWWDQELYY
T1 sequence (P18434 whole entry partner): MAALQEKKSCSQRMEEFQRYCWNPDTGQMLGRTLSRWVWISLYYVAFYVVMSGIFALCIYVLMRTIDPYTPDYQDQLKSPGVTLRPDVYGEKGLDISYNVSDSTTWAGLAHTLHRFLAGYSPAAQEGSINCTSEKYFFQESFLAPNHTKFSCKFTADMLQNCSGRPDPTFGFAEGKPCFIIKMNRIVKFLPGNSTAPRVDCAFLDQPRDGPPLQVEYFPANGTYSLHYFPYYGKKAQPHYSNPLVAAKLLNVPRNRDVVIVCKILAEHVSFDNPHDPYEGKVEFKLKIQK
T2 sequence (P19156 2-1034 limits assumed): as the sequence (P19156 2-1034 limits assumed) above
T2 sequence (P18434 whole entry partner): as the sequence (P18434 whole entry partner) above

Competitive inhibition with K+ at the K+ binding site of proton pump ([2]; Lineweaver-Burk plot, KCl 0.1 to 30 mM): inhibited competitively with K^+ | Ki ([2]; Lineweaver-Burk, versus K+, pH 7.0): 700 nM | Reversibility of the inhibition of the enzyme activity ([4]; conclusion from Table 4): reversible | Inhibition of H+/K+ ATPase activity before Dilution and Washout ([4]; pH 6.4, Example 34 at 6 μM, omeprazole and SK&F96067 at 60 μM): 80%
Compound: CCCC(=O)c1cnc2c(OC)cccc2c1Nc1ccccc1C [SK&F96067]
The gastric secretion inhibition ([1]; 1.0 mg/kg): 32.6% | The gastric secretion inhibition ([1]; 3.0 mg/kg): 64.0% | The gastric secretion inhibition ([1]; 5.0 mg/kg): 77.3% | ED50 ([1]; Rattus norvegicus): 1.85 mg/kg | The gastric secretion inhibition (%) ([3]; 0.5 mg/kg): 29.8% | The gastric secretion inhibition (%) ([3]; 1.0 mg/kg): 57.1% | The gastric secretion inhibition (%) ([3]; 3.0 mg/kg): 75.9% | ED50 ([3]; Rattus norvegicus, read-out: ED50, gastric secretion inhibition): 0.96 mg/kg

Source: patent US5686458A, “Quinazoline deriviates for treating peptic ulcer” (Yuhan Corporation, priority 1992, dated 1997)
